Our source for the GI50 values is ChEMBL document CHEMBL4033614, “Antineoplastic Agents. 603. Quinstatins: Exceptional Cancer Cell Growth Inhibitors” (2017).

Assay [1] deals with KM-20L2. Put plainly: Growth inhibition of human KM20L2 cells incubated for 48 hrs by sulforhodamine B assay. Conditions: KM-20L2, 48 h.
For assay [2], the system named is NCI-H460. In words: Growth inhibition of human NCI-H460 cells incubated for 48 hrs by sulforhodamine B assay. To be noted: NCI-H460, 48 h.
The subject of assay [3] is SF-268. In words: Growth inhibition of human SF268 cells incubated for 48 hrs by sulforhodamine B assay. Conditions: SF-268, 48 h.
Assay [4] relates to MCF7. Put plainly: Growth inhibition of human MCF7 cells incubated for 48 hrs by sulforhodamine B assay. To be noted: MCF7, 48 h.
In assay [5] the test system is BXPC-3. Put plainly: Growth inhibition of human BxPC3 cells incubated for 48 hrs by MTT assay. Type of assay: functional. To be noted: BXPC-3, 48 h.
Assay [6] has as its system DU-145. In words: Growth inhibition of human DU145 cells incubated for 48 hrs by sulforhodamine B assay. To be noted: DU-145, 48 h.
The subject of assay [7] is BXPC-3. In words: Growth inhibition of human BxPC3 cells incubated for 48 hrs by sulforhodamine B assay. Conditions: BXPC-3, 48 h.

Square brackets hold non-standard residues; d marks the D form. Peptide text beside a SMILES is read from it. * marks the point of attachment. Dolaproine = CO[C@@H]([C@@H]1CCCN1)[C@@H](C)C(=O)O; Dil = CC[C@H](C)[C@H](NC)[C@@H](CC(=O)O)OC; X1 = C[C@@H](N*)[C@@H](O)c1ccccc1; NMeV = CN[C@H](C(=O)O)C(C)C

Regarding `CC[C@H](C)[C@@H]([C@@H](CC(=O)N1CCC[C@H]1[C@H](OC)[C@@H](C)C(=O)NCCc1ccc2ncccc2c1)OC)N(C)C(=O)[C@@H](NC(=O)[C@H](C(C)C)N(C)C)C(C)C`, the GI50 amounted to 0.518 nM in assay [1]; 5.71 nM in assay [2]; 0.399 nM in assay [3]; 0.532 nM in assay [4]; 2.66 nM in assay [5]; 0.399 nM in assay [6].
For `CC[C@H](C)[C@@H]([C@@H](CC(=O)N1CCC[C@H]1[C@H](OC)[C@@H](C)C(=O)NCCc1cnc2ccccc2c1)OC)N(C)C(=O)[C@@H](NC(=O)[C@H](C(C)C)N(C)C)C(C)C`, the GI50 in assay [1] stood at 0.532 nM; in assay [2], 41.2 nM; in assay [3], 0.385 nM; in assay [4], 0.305 nM; in assay [5] it was 27.9 nM; in assay [6], 0.266 nM.
As to `CC[C@H](C)[C@@H]([C@@H](CC(=O)N1CCC[C@H]1[C@H](OC)[C@@H](C)C(=O)N[C@H](C)[C@@H](O)c1ccccc1)OC)N(C)C(=O)[C@@H](NC(=O)[C@H](C(C)C)N(C)C)C(C)C`, the GI50 in assay [1] was 0.492 nM; in assay [2] it was 0.533 nM; in assay [3], 0.492 nM; in assay [4], 0.232 nM; in assay [5], greater than 1.37 nM; in assay [6] it was 0.424 nM.
Consider `CC[C@H](C)[C@@H]([C@@H](CC(=O)N1CCC[C@H]1[C@H](OC)[C@@H](C)C(=O)NCCc1cccc2ncccc12)OC)N(C)C(=O)[C@@H](NC(=O)[C@H](C(C)C)N(C)C)C(C)C`, for which the 50% growth inhibitory concentration (GI50) in assay [1] was determined as 0.305 nM; in assay [2], 6.37 nM; in assay [3], 0.146 nM; in assay [4] it was 0.097 nM; in assay [5], 2.79 nM; in assay [6], 0.172 nM.
For the compound `CC[C@H](C)[C@@H]([C@@H](CC(=O)N1CCC[C@H]1[C@H](OC)[C@@H](C)C(=O)NCCc1ccc2cccnc2c1)OC)N(C)C(=O)[C@@H](NC(=O)[C@H](C(C)C)N(C)C)C(C)C`, the GI50 was found to be 0.054 nM in assay [1]; 14.6 nM in assay [2]; 0.032 nM in assay [3]; 0.039 nM in assay [4]; 4.12 nM in assay [5]; 0.04 nM in assay [6].
Turning to `CC[C@H](C)[C@@H]([C@@H](CC(=O)N1CCC[C@H]1[C@H](OC)[C@@H](C)C(=O)NCCc1ccc2ccccc2n1)OC)N(C)C(=O)[C@@H](NC(=O)[C@H](C(C)C)N(C)C)C(C)C`, the GI50 in assay [1] was 0.438 nM; in assay [2], 6.77 nM; in assay [3] it was 0.31 nM; in assay [4] it was 0.412 nM; in assay [5], 12.4 nM; in assay [6] it was 0.412 nM.
In the case of `CC[C@H](C)[C@@H]([C@@H](CC(=O)N1CCC[C@H]1[C@H](OC)[C@@H](C)C(=O)NCCc1cccc2cccnc12)OC)N(C)C(=O)[C@@H](NC(=O)[C@H](C(C)C)N(C)C)C(C)C`, the GI50 in assay [1] came out at 0.053 nM; in assay [2] it was 1.19 nM; in assay [7], 0.425 nM; in assay [3] it was 0.03 nM; in assay [4], 0.053 nM; in assay [6], 0.053 nM.
With `CC[C@H](C)[C@@H]([C@@H](CC(=O)N1CCC[C@H]1[C@H](OC)[C@@H](C)C(=O)NCCc1ccnc2ccccc12)OC)N(C)C(=O)[C@@H](NC(=O)[C@H](C(C)C)N(C)C)C(C)C`, the 50% growth inhibitory concentration (GI50) in assay [1] came to 0.425 nM; in assay [2], 5.71 nM; in assay [3], 0.252 nM; in assay [4], 0.398 nM; in assay [5], 5.84 nM; in assay [6] it was 0.305 nM.
On to `CC[C@H](C)[C@@H]([C@@H](CC(=O)N1CCC[C@H]1[C@H](OC)[C@@H](C)C(=O)N[C@H](C)[C@@H](O)c1ccccc1)OC)N(C)C(=O)[C@@H](NC(=O)[C@@H](NC)C(C)C)C(C)C` (H-[NMeV]V[Dil][Dolaproine]-X1), for which the GI50 in assay [1] was 0.599 nM; in assay [2], 0.683 nM; in assay [3] it was 0.432 nM; in assay [4] it was 0.404 nM; in assay [5], greater than 1.39 nM; in assay [6], 0.418 nM.
